Reference: patent publication US20060040905A1 (priority 2002, published 2006)

Tests used:
hot plate test = conditions: in vivo; cited from earlier work
mouse tail-flick test = conditions: cited from earlier work
solubility = type: physicochemical
Text: (§1) Nefopam may thus be rapidly and completely absorbed from the nasal cavity and provide the rapid onset of action required to bring pain relief.

[1] = stability with excipients individually; type: physicochemical
[2] = tested on: Randall-Selitto pressure test; conditions: rats; cited from earlier work
[3] = in vivo; cited from earlier work
[4] = stability in solution across pH range; type: physicochemical; conditions: wide pH range (4-7) including pH 5.5-6.5
Text: as §1

[5] = tested on: nasal epithelial cell-line (RPMI 2650); experiment: cytotoxicity against nasal epithelial cell-line; type: cell-based; conditions: RPMI 2650 cells; even at high concentrations (>5 mM)

- solubility (solubility): highly soluble
- stability with all the excipients individually ([1]; 4 weeks incubation at 25° C.): demonstrated
- stability with all the excipients individually ([1]; 4 weeks incubation at 50° C.): demonstrated
- stability in solution [4]: stable in solution
SMILES: CN1CCOC(c2ccccc2)c2ccccc2C1 (racemic) [nefopam]
- activity in hot plate test (hot plate test): not active
- activity in mouse tail-flick test (mouse tail-flick test): not active
- activity in Randall-Selitto pressure test [2]: not active
- elimination half-life [3]: four
- cytotoxicity [5]: no cytotoxicity
